Data as given in patent publication US20130040935A1, “CYCLIC KETO-ENOLS FOR THERAPY” (BAYER INTELLECTUAL PROPERTY GMBH, priority 2010, published 2013).
pIC50: −log10 of the molar value. Read-outs that look alike come from different tables or passages of the source.

Tests used:
[1] = system: MCF7; experiment: Cell proliferation assay (CellTiter-Glo, 96 h), MCF7; type: cell-based; conditions: Homo sapiens
Protocol: In accordance with the invention, the substances were tested in cell-based assays for the ability of the substances of inhibiting tumour cell proliferation after a 96-hour incubation with the substance. Cell viability was tested using the CellTiter-Glo® luminescent cell viability assay (Promega). The cells were sown at a density of 2000-5000 cells/well (depending on the cell line) in 100 μl growth medium on 96-well microtitre plates. For each cell line examined, cells were sown on a separate plate to determine the luminescence at t=0 hours and t=96 hours. After overnight incubation at 37° C., the luminescence values for the t=0 samples were determined. The dose plates for the t=96 hours points in time were treated with substances diluted with growth medium. The cells were then incubated at 37° C. for 96 hours, and the luminescence values for the t=96 hours sample were then determined. For data analysis, the t=0 values were subtracted from the t=96 hour values for treated and untreated samples. The differences in luminescence in percent between substance-treated samples and control values were used to determine the growth inhibition in percent.
The substances were tested in the following cell lines which represent the stated indications in an exemplary manner: […]

[2] = biological target: T1, human ACC1 (acetyl-coenzyme A carboxylase alpha transcript variant 1) (Homo sapiens, UniProt Q13085); experiment: Human ACC1 enzyme assay, Assay B1 (ADP-Glo); type: biochemical
T1 construct: FLAG (C); made in house; host or cells: baculovirus-infected insect cells (Hi5)
Protocol: (§1) Essentially, the enzyme activity is measured by quantifying the adenosine diphosphate (ADP) formed as a byproduct of the enzyme reactions using the ADP-Glo™ detection system from Promega. In this test, initially the adenosine triphosphate (ATP) not consumed in the enzyme reaction is converted quantitatively with an adenylate cyclase (“ADP-GLO reagent”) into cAMP, the adenylate cyclase is then stopped and (“kinase detection reagent”) the ADP formed is subsequently converted into ATP, which is converted in a luciferase-based reaction into a glow luminescence signal.
The concentration of the hACC1 was adapted to the respective activity of the enzyme and adjusted such that the assay operated in the linear range. […] The amount of light emitted was taken as a measure for the amount of ADP formed and thus for the enzyme activity of the hACC1.

[3] = biological target: human ACC2 (acetyl-coenzyme A carboxylase 2) (Homo sapiens, UniProt O00763); experiment: Human ACC2 enzyme assay, Assay B2 (ADP-Glo);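 further: human ACC2 activity read as ADP product, detected by luciferase glow luminescence after residual ATP removal, enzyme near 2 ng/µl in linear range, detection steps at 22 °C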
Chain of human ACC2 (acetyl-coenzyme A carboxylase 2) (O00763 27-2458 limits assumed): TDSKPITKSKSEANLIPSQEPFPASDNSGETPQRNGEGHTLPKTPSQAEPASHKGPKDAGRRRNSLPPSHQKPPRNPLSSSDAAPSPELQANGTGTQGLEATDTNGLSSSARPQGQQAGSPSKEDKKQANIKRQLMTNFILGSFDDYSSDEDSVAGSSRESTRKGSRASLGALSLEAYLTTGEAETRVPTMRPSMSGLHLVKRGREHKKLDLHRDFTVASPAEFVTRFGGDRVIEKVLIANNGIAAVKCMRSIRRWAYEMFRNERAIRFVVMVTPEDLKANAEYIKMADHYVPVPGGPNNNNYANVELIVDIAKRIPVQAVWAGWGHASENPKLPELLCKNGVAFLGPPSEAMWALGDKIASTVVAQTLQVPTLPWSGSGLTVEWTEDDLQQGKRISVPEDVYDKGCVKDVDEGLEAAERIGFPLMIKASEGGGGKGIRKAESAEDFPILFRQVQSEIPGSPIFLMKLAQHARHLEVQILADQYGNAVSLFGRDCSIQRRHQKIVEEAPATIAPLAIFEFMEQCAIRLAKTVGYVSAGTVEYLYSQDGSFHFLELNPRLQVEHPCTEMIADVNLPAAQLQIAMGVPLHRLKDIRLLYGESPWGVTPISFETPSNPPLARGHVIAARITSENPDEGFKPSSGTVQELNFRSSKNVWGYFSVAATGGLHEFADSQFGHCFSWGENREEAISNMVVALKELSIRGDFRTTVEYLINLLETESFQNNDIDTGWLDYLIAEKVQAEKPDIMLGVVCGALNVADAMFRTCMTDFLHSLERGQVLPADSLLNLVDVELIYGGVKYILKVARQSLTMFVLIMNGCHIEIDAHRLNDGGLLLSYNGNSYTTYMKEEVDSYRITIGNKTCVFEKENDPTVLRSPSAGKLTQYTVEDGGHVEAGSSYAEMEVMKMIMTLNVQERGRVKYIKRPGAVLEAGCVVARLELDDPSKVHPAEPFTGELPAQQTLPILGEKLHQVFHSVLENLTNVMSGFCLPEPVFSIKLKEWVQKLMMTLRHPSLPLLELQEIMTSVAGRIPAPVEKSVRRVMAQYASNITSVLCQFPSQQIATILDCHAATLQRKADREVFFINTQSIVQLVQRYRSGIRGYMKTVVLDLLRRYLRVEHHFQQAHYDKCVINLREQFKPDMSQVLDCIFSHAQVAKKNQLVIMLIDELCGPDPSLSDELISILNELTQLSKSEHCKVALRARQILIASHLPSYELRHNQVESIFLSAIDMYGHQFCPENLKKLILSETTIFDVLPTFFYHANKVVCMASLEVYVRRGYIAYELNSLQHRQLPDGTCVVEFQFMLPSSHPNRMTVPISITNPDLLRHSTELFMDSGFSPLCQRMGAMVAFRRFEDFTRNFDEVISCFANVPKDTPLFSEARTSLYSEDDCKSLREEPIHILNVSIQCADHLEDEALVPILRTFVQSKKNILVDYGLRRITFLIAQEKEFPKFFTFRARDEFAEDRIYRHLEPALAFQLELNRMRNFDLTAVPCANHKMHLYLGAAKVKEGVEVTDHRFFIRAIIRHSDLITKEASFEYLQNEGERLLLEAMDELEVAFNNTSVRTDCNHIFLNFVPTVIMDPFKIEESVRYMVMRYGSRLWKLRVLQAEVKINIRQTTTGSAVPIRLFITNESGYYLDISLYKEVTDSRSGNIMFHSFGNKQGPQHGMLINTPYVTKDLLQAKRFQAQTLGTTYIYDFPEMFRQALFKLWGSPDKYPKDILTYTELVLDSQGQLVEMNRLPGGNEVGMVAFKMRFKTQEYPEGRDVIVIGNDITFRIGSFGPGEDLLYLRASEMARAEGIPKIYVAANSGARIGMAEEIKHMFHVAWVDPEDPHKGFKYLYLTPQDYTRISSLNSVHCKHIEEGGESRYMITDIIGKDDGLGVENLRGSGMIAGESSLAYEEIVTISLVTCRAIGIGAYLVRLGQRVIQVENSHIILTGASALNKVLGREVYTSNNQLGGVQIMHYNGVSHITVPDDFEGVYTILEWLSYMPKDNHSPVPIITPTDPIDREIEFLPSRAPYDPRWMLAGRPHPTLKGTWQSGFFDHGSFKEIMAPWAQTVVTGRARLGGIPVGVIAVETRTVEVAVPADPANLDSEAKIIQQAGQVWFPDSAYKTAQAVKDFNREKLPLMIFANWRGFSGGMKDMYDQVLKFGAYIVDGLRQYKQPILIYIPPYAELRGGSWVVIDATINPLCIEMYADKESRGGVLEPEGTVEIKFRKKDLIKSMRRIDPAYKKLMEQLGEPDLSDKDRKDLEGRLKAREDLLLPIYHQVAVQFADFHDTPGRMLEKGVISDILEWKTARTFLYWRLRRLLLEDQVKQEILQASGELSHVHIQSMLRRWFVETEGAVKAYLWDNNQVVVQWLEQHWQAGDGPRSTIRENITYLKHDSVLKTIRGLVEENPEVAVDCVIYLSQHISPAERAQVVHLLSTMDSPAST
Protocol: The hACC2-inhibitory action of the substances of the present invention was measured in the hACC2 assay described in the paragraphs below.
as §1
The concentration of the hACC2 was adapted to the respective activity of the enzyme and adjusted such that the assay operated in the linear range. Typical concentrations were in the range of 2 ng/μl. […] The amount of light emitted was taken as a measure for the amount of ADP formed and thus for the enzyme activity of the hACC2.

[4] = Assay B1, ADP-Glo, read-out: ACC 1 (=B1) IC50
[5] = MCF7, Table 9a, 96-hour incubation
[6] = Assay B1, read-out: ACC 1 (=B1) IC50

| SMILES | pIC50 [3] | pIC50 [2] | also measured |
| --- | --- | --- | --- |
| CO[C@H]1CC[C@]2(CC1)NC(=O)C(c1c(C)cc(C)c(-c3ccc(F)cc3)c1C)=C2O [1-42, (5s,8s)-3-(4′-fluoro-2,4,6-trimethylbiphenyl-3-yl)-4-hydroxy-8-methoxy-1-azaspiro[4.5]dec-3-en-2-one] | – | – | pIC50 ([1]; MCF7, Table 7, 96-hour incubation): 5.89 |
| CC[C@]1(OC)CC[C@@]2(CC1)NC(=O)C(c1c(C)ccc(-c3ccc(Cl)cc3)c1C)=C2O [1-88, (5r,8r)-3-(4′-chloro-2,4-dimethylbiphenyl-3-yl)-8-ethyl-4-hydroxy-8-methoxy-1-azaspiro[4.5]dec-3-en-2-one] | 4.93 | 6.34 | – |
| CC[C@]1(OC)CC[C@@]2(CC1)NC(=O)C(c1c(C)ccc(-c3ccc(F)cc3)c1C)=C2O [1-89, (5r,8r)-8-ethyl-3-(4′-fluoro-2,4-dimethylbiphenyl-3-yl)-4-hydroxy-8-methoxy-1-azaspiro[4.5]dec-3-en-2-one] | 4.87 | 5.68 | – |
| CCC1CCC2(CC1)OC(=O)C(c1cc(-c3ccc(Cl)cc3)ccc1C)=C2O (centres unmarked) [2-1, 3-(4′-chloro-4-methylbiphenyl-3-yl)-8-ethyl-4-hydroxy-1-oxaspiro[4.5]dec-3-en-2-one] | 4.82 | – | pIC50 [2, 4]: 5.94 |
| Cc1ccc(-c2ccc(Cl)cc2)c(C)c1C1=C(O)C2(CCCC2)OC1=O [2-2, 3-(4′-chloro-2,4-dimethylbiphenyl-3-yl)-4-hydroxy-1-oxaspiro[4.4]non-32--en-2-one] | < 4.70 | 5.63 | – |
| Cc1cc(C)c(-c2ccc(Cl)cc2)c(C)c1C1=C(O)C(C)(C)OC1=O [2-5, 3-(4′-chloro-2,4,6-trimethylbiphenyl-3-yl)-4-hydroxy-5,5-dimethylfuran-2(5H)-one] | 5.13 | 5.90 | – |
| Cc1ccc(-c2ccc(Cl)cc2)cc1C1=C(O)C2(CCCCC2)OC1=O [2-10, 3-(4′-chloro-4-methylbiphenyl-3-yl)-4-hydroxy-1-oxaspiro[4.5]dec-3-en-2-one] | 5.33 | – | pIC50 [2, 4]: 7.17 |
| COC1CCCC2(C1)OC(=O)C(c1cc(-c3ccc(Cl)cc3)c(C)cc1C)=C2O (centres unmarked) [2-11, 3-(4′-chloro-4,6-dimethylbiphenyl-3-yl)-4-hydroxy-7-methoxy-1-oxaspiro[4.5]dec-3-en-2-one] | 4.91 | – | pIC50 [2, 4]: 5.90 |
| COC1CCCC2(C1)OC(=O)C(c1cc(-c3ccc(Cl)cc3)ccc1C)=C2O (centres unmarked) [2-14, 3-(4′-chloro-4-methylbiphenyl-3-yl)-4-hydroxy-7-methoxy-1-oxaspiro[4.5]dec-3-en-2-one] | < 4.70 | – | pIC50 [2, 4]: 6.11 |
| Cc1ccc(-c2ccc(Cl)cc2)cc1C1=C(O)C2(CCC3(CC2)OCCO3)OC1=O [2-15, 11-(4′-chloro-4-methylbiphenyl-3-yl)-12-hydroxy-1,4,9-trioxadispiro[4.2.4.2]tetradec-11-en-10-one] | 5.10 | – | pIC50 [2, 4]: 6.95 |
| COCC1CCC2(CC1)OC(=O)C(c1cc(-c3ccc(Cl)cc3)ccc1Cl)=C2O (centres unmarked) [2-16, 3-(4,4′-dichlorobiphenyl-3-yl)-4-hydroxy-8-(methoxymethyl)-1-oxaspiro[4.5]dec-3-en-2-one] | 5.27 | 6.86 | – |
| COCCC1CCCC2(C1)OC(=O)C(c1cc(-c3ccc(Cl)cc3)ccc1Cl)=C2O (centres unmarked) [2-19, 3-(4,4′-dichlorobiphenyl-3-yl)-4-hydroxy-7-(2 methoxyethyl)-1-oxaspiro[4.5]dec-3-en-2-one] | 4.87 | – | pIC50 [2, 4]: 6.09 |
| O=C1OC2(CCC3(CCCO3)CC2)C(O)=C1c1cc(-c2ccc(Cl)cc2)ccc1Cl (centres unmarked) [2-27, 3-(4,4′-dichlorobiphenyl-3-yl)-4-hydroxy-1,9-dioxadispiro[4.2.4.2]tetradec-3-en-2-one] | 5.15 | 6.10 | – |
| Cc1ccc(-c2ccc(Cl)cc2)cc1C1=C(O)C2(CCC3(CCCO3)CC2)OC1=O (centres unmarked) [2-29, 3-(4′-chloro-4-methylbiphenyl-3-yl)-4-hydroxy-1,9-dioxadispiro[4.2.4.2]tetradec-3-en-2-one] | 5.52 | – | pIC50 [2, 4]: 6.69 |
| COC1CCC2(CC1)OC(=O)C(c1c(C)ccc(-c3ccc(Cl)cc3)c1C)=C2O (centres unmarked) [2-34, 3-(4′-chloro-2,4-dimethylbiphenyl-3-yl)-4-hydroxy-8-methoxy-1-oxaspiro[4.5]dec-3-en-2-one] | – | – | pIC50 ([1]; MCF7 cells): 6.37 |
| CCCC1CCC2(CC1)OC(=O)C(c1cc(-c3ccc(Cl)cc3)ccc1C)=C2O (centres unmarked) [2-36, 3-(4′-chloro-4-methylbiphenyl-3-yl)-4-hydroxy-8-propyl-1-oxaspiro[4.5]dec-3-en-2-one] | 5.62 | 6.35 | – |
| Cc1ccc(-c2ccc(Cl)cc2)cc1C1=C(O)C2(CCCCCC2)OC1=O [2-38, 3-(4′-chloro-4-methylbiphenyl-3-yl)-4-hydroxy-1-oxaspiro[4.6]undec-3-en-2-one] | 5.13 | 6.41 | – |
| COC1CCC2(CC1)OC(=O)C(c1cc(-c3ccc(Cl)cc3)ccc1C)=C2O (centres unmarked) [2-39, 3-(4′-chloro-4-methylbiphenyl-3-yl)-4-hydroxy-8-methoxy-1-oxaspiro[4.5]dec-3-en-2-one] | 5.28 | – | pIC50 [2, 4]: 6.79 |
| Cc1cc(C)c(-c2ccc(Cl)cc2)cc1C1=C(O)C2(CCOCC2)OC1=O [2-41, 3-(4′-chloro-4,6-dimethylbiphenyl-3-yl)-4-hydroxy-1,8-dioxaspiro[4.5]dec-3-en-2-one] | 5.18 | – | pIC50 [2, 4]: 6.37 |
| Cc1cc(C)c(-c2ccc(Cl)cc2)cc1C1=C(O)C2(CCCOC2)OC1=O (centres unmarked) [2-46, 3-(4′-chloro-4,6-dimethylbiphenyl-3-yl)-4-hydroxy-1,7-dioxaspiro[4.5]dec-3-en-2-one] | 5.28 | – | pIC50 [2, 4]: 6.38 |
| Cc1cc(C)c(-c2ccc(Cl)cc2)c(C)c1C1=C(O)C2(CCCC2)OC1=O [2-49, 3-(4′-chloro-2,4,6-trimethylbiphenyl-3-yl)-4-hydroxy-1-oxaspiro[4.4]non-3-en-2-one] | < 4.70 | ≤ 4.70 | – |
| Cc1ccc(-c2cccc(Cl)c2)cc1C1=C(O)C2(CCCCCC2)OC1=O [2-50, 3-(3′-chloro-4-methylbiphenyl-3-yl)-4-hydroxy-1-oxaspiro[4.6]undec-3-en-2-one] | 4.81 | 5.89 | – |
| COC1CCC2(CC1)SC(=O)C(c1cc(-c3ccc(Cl)cc3)ccc1C)=C2O (centres unmarked) [3-1, 3-(4′-chloro-4-methylbiphenyl-3-yl)-4-hydroxy-8-methoxy-1-thiaspiro[4.5]dec-3-en-2-one] | 4.81 | 5.85 | – |
| Cc1ccc(-c2ccc(Cl)cc2)cc1C1=C(O)C2(CCCCC2)SC1=O [3-2, 3-(4′-chloro-4-methylbiphenyl-3-yl)-4-hydroxy-1-thiaspiro[4.5]dec-3-en-2-one] | – | – | pIC50 [1, 5]: 6.34 |
| Cc1ccc(-c2ccc(Cl)cc2)cc1C1=C(O)CC2(CCCCC2)CC1=O [7-2, 3-(4′-chloro-4-methylbiphenyl-3-yl)-4-hydroxyspiro[5.5]undec-3-en-2-one] | – | – | pIC50 [1, 5]: 5.92; pIC50 [2, 6]: 6.30 |
| Cc1ccc(-c2ccc(Cl)cc2)cc1C1=C(O)CC(C)(C)CC1=O [7-5, 2-(4′-chloro-4-methylbiphenyl-3-yl)-3-hydroxy-5,5-dimethylcyclohex-2-en-1-one] | – | 6.04 | pIC50 [1, 5]: 6.00 |
| O=C1C(c2cc(-c3ccc(Cl)cc3)ccc2Cl)C(=O)N2CCCCN12 [8-2, 2-(4,4′-dichlorobiphenyl-3-yl)tetrahydro-1H-pyrazolo[1,2-a]pyridazine-1,3(2H)-dione] | – | 6.40 | pIC50 [1, 5]: 6.06 |
| Cc1ccc(-c2ccc(Cl)cc2)c(C)c1C1C(=O)N2CCOCCN2C1=O [8-8, 8-(4′-chloro-2,4-dimethylbiphenyl-3-yl)tetrahydro-7H-pyrazolo[1,2-d][1,4,5]oxadiazepine-7,9(8H)-dione] | < 4.70 | 5.88 | – |
| Cc1ccc(-c2ccc(Cl)cc2)cc1C1=C(O)CC(C)(C)NC1=O [9-1, 3-(4′-chloro-4-methylbiphenyl-3-yl)-4-hydroxy-6,6-dimethyl-5,6-dihydropyridin-2(1H)-one] | – | – | pIC50 ([1]; MCF7 cells): 5.90; pIC50 [2, 6]: 5.42 |

Now from value to compound, other results behind:

| pIC50 [3] | SMILES | pIC50 [2] | also measured |
| --- | --- | --- | --- |
| < 4.70 | Cc1ccc(-c2cccc(Cl)c2)cc1C1=C(O)C2(CCCCC2)CC1=O [6-3, 3-(3′-chloro-4-methylbiphenyl-3-yl)-4-hydroxyspiro[4.5]dec-3-en-2-one] | – | pIC50 [2, 6]: 5.93 |
| 5.33 | Cc1ccc(-c2ccc(Cl)cc2)cc1C1=C(O)C2(CCCC2)CC1=O [6-4, 3-(4′-chloro-4-methylbiphenyl-3-yl)-4-hydroxyspiro[4.4]non-3-en-2-one] | – | pIC50 [2, 6]: 6.66 |
| < 4.70 | Cc1ccc(-c2ccc(C(F)(F)F)cc2)cc1-c1c(O)c2ccc(Cl)cc2[nH]c1=O [9-6, 7-chloro-4-hydroxy-3-[4-methyl-4′-(trifluoromethy)biphenyl-3-yl]quinolin-2(1H)-one] | – | pIC50 [2, 6]: 5.89 |
| 5.68 | Cc1cc(C)c(-c2c(O)c3ccc(Cl)cc3[nH]c2=O)cc1-c1ccc(Cl)cc1 [9-12, 7-chloro-3-(4′-chloro-4,6-dimethyl-biphenyl-3-yl)-4-hydroxyquinolin-2(1H)-one] | – | pIC50 [2, 6]: 6.42 |
| 5.40 | O=c1[nH]c2cc(Cl)ccc2c(O)c1-c1cc(-c2ccc(Cl)cc2)ccc1Cl [9-13, 7-chloro-3-(4,4′-dichlorobiphenyl-3-yl)-4-hydroxyquinolin-2(1H)-one] | – | pIC50 [2, 6]: 6.72 |
